The assay deals with T1, prostacyclin receptors (IP receptors) (Homo sapiens, UniProt P43119).
T1 construct: Thrombocyte membranes are obtained by centrifuging 50 ml of human blood; tissue Maco Pharma, Langen (buffy coats); host or cells: human thrombocyte (platelet) membranes from blood buffy coats
The assay is described as follows: Binding to prostacyclin receptors (IP receptors) of human thrombocyte membranes. To be noted: displacement of 3 nM 3H-Iloprost, 60 min, room temperature. As for the experimental part: Thrombocyte membranes are obtained by centrifuging 50 ml of human blood (Buffy coats with CDP Stabilizer, from Maco Pharma, Langen) for 20 min at 160×g. Remove the supernatant (platelet-rich plasma, PRP) and then centrifuge again at 2000×g for 10 min at room temperature. Resuspend the sediment in 50 mM tris(hydroxymethyl)amino-methane, which has been adjusted to a pH of 7.4 with 1 N hydrochloric acid, and store at −20° C. overnight. On the next day, centrifuge the suspension at 80 000×g and 4° C. for 30 min. Discard the supernatant. Resuspend the sediment in 50 mM tris(hydroxy-methyl)aminomethane/hydrochloric acid, 0.25 mM ethylene diamine tetraacetic acid (EDTA), pH 7.4, and then centrifuge once again at 80 000×g and 4° C. for 30 min. Take up the membrane sediment in binding buffer (50 mM tris(hydroxymethyl)-aminomethane/hydrochloric acid, 5 mM magnesium chloride, pH 7.4) and store at −70° C. until the binding test.
For the binding test, incubate 3 nM ^3H-Iloprost (592 GBq/mmol, from AmershamBioscience) for 60 min with 300-1000 μg/ml of human thrombocyte membranes per charge (max. 0.2 ml) in the presence of the test substances at room temperature. After stopping, add cold binding buffer to the membranes and wash with 0.1% bovine serum albumin. After adding Ultima Gold Scintillator, quantify the radioactivity bound to the membranes using a scintillation counter. The nonspecific binding is defined as radioactivity in the presence of 1 μM Iloprost (from Cayman Chemical, Ann Arbor) and is as a rule <25% of the bound total radioactivity. The binding data (IC50 values) are determined using the program GraphPad Prism Version 3.02.

SMILES strings stand for the structures.

T1 sequence (P43119 whole entry): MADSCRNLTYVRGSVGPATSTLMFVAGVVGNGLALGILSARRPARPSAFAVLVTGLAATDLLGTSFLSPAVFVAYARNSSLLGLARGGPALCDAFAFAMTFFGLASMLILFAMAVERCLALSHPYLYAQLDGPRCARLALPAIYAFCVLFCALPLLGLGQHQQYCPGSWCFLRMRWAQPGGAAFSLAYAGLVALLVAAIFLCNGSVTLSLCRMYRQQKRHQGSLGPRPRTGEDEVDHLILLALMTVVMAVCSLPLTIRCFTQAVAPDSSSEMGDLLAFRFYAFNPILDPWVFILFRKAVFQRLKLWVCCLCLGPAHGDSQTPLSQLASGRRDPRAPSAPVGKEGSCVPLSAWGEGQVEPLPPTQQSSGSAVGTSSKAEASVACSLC

As for `C=Cc1ccc(-c2c(-c3ccccc3)oc3ncnc(NCCCCCC(=O)OC)c23)nc1` [Example 3, Methyl 6-{[6-phenyl-5-(5-vinylpyridin-2-yl)furo[2,3-d]pyrimidin-4-yl]amino}hexanoate], the IC50 stood at 105 nM.
Next, `CCc1ccc(-c2c(-c3ccccc3)oc3ncnc(NCCCCCC(=O)O)c23)nc1` [Example 18]: 125 nM.
Next, `COc1ccc(-c2c(-c3ccccn3)oc3ncnc(O[C@H](C)CCCCC(=O)O)c23)cc1` [Example 21]: 53 nM.
Next, `COc1ccc(-c2c(C3=CCCCC3)oc3ncnc(O[C@H](C)CCCCC(=O)O)c23)cc1` [Example 24]: 72 nM.
Compound `CC1CC=C(c2c(-c3ccccc3)oc3ncnc(O[C@H](C)CCCCC(=O)O)c23)CC1` (stereo partly drawn) [Example 26, (6R)-6-{[5-(4-Methylcyclohex-1-en-1-yl)-6-phenylfuro[2,3-d]pyrimidin-4-yl]oxy}heptanoic acid] gave an IC50 of 1870 nM.
On to `COc1ccc(-c2c(-c3cccs3)oc3ncnc(NCCCCCC(=O)O)c23)cc1` [Example 32, 6-{[5-(4-Methoxyphenyl)-6-(2-thienyl)furo[2,3-d]pyrimidin-4-yl]amino}hexanoic acid], for which the half-inhibitory concentration (IC50) was determined as 134 nM.
`CCOC(=O)COC[C@@H](C)COc1ncnc2oc(-c3ccccn3)c(-c3ccc(OC)cc3)c12` [Example 37] returned an IC50 of 56 nM.
Turning to `CCc1ccc(-c2c(-c3ccccc3)oc3ncnc(OC[C@H](C)COCC(=O)O)c23)nc1` [Example 46], the IC50 is 63 nM.
In the case of `COc1ccc(-c2c(-c3ncccc3F)oc3ncnc(O[C@H](C)CCCCC(=O)O)c23)cc1` [Example 48] it was 121 nM; in that of `CCc1ccc(-c2c(-c3ccccn3)oc3ncnc(O[C@H](C)CCCCC(=O)O)c23)cc1` [Example 49], 19 nM.
Next, `CCc1ccc(-c2c(-c3ccccn3)oc3ncnc(OC[C@H](C)OCCC(=O)O)c23)cc1` [Example 51]: 193 nM.

By IC50 is commonly meant the concentration that inhibits the measured activity by half. A high value points to weaker potency in that assay.

Source of the values: patent US20110166163A1, “SUBSTITUTED FUROPYRIMIDINES AND USE THEREOF” (BAYER SCHERING PHARMA AKTIENGESELLSCHAFT, priority 2007, published 2011).
